Data published in EP4245293B1, “USE OF SUGAR AMINES AS COMPLEXING AGENTS” (Clariant International Ltd, priority 2022, dated 2023).

Tests used:
Type in all cases: physicochemical
[1] = Complexing ability test vs. EDTA (color changes and precipitate formation); conditions: for Result: Fe^3+ solution 0,2 mmol/L, observed color and precipitate; for chelating strength for Iron^3+ ions relative to EDTA: both EDTA and chelant present, judged from the colored complex formed
Protocol: The relative complexing ability of the chelant is evaluated vs. EDTA by observing color changes and precipitate formation.
To Fe^3+ and Cu^2+ solutions (c = 0,2 mmol/L), solutions of chelants are added: • Na4EDTA at 0,4 mmol/L • Na4EDTA at 2 mmol/L • Only chelant (Dimethylglucamine or Piroctone Olamine) at 0,6 mmol/L • Chelant (Dimethylglucamine or Piroctone Olamine) at 0,6 mmol/L + Na4EDTA 0,4 mmol/L • Chelant (Dimethylglucamine or Piroctone Olamine) at 0,6 mmol/L + Na4EDTA 2 mmol/L

[2] = Confirmation of complex formation with single chelants, Fe3+ ions
[3] = Confirmation of complex formation with single chelants, Cu2+ ions
[4] = Complexing ability test of Dimethylglucamine vs. Aminomethylpropanol; conditions: for Result: Cu^2+ solution 0,2 mmol/L, each chelant at 0.6 mmol/L, observed color and precipitate
Protocol: The relative complexing ability of the chelant Dimethylglucamine is evaluated vs. Aminomethylpropanol by observing color changes and precipitate formation. In particular Aminomethylpropanol was chosen since in the previous test c) it was shown that Aminomethylpropanol makes complex with Copper that differs in color of Copper complex with Dimethylglucamine. Therefore, it is possible to evaluate the strength of complexation of Aminomethylpropanol and Dimethylglucamine when both chelants are present in solution of Copper^2+ ions by observing the color of solution. To Cu^2+ solutions (c = 0,2 mmol/L), solutions of chelants are added: • Aminomethylpropanol at 0,6 mmol/L • Dimethylglucamine at 0,6 mmol/L • Aminomethylpropanol at 0,6 mmol/L + Dimethylglucamine 0,6 mmol/L

[5] = Fe^3+ solution 0,2 mmol/L with single chelant
[6] = Fe^3+ solution 0,2 mmol/L, single chelant added at c=0,2 mmol/L, observed color and precipitate
[7] = Cu^2+ solution 0,2 mmol/L with single chelant
[8] = Cu^2+ solution 0,2 mmol/L, single chelant added at c=0,2 mmol/L, observed color and precipitate

SMILES | Result ([1]; only chelant at 0,6 mmol/L) | chelating strength for Iron^3+ ions relative to EDTA [1] | pH [2, 5] | Result [2, 6] | pH [3, 7] | Result [3, 8] | Result [4] | complexes formed with Iron^3+ ions [2] | complexes formed with Copper^2+ ions [3] | complex formed in presence of Aminomethylpropanol and Cu^2+ ions ([4]; both chelants present at 0,6 mmol/L) | Result ([1]; EDTA 0.4 mmol/L, alone or with chelant at 0,6 mmol/L) | Result ([1]; EDTA 2 mmol/L, alone or with chelant at 0,6 mmol/L) | Result [2] | pH [2] | Result [3] | pH [3]
Cc1cc(CC(C)CC(C)(C)C)n(O)c(=O)c1.NCCO (stereo not shown) [Piroctone Olamine] | Turbid yellowish solution with distinct orange precipitate | stronger than EDTA | 3.8 | Turbid solution with distinct orange precipitate | 8.3 | Turbid, light blue solution | – | – | – | – | – | – | – | – | – | –
NCC(=O)O [Glycine] | – | – | 3.3 | Clear solution with distinct orange precipitate | 4.6 | Clear, slightly bluish solution | – | – | – | – | – | – | – | – | – | –
CC(C)(N)CO [Aminomethylpropanol] | – | – | 4.0 | Clear solution with distinct orange precipitate | 9.2 | Clear solution with distinct brown precipitate | Clear solution with distinct brown precipitate | – | – | – | – | – | – | – | – | –
CN(C)C[C@H](O)[C@@H](O)[C@H](O)[C@H](O)CO [Dimethylglucamine, N,N-dimethylglucamine] | Clear solution with distinct orange precipitate | stronger chelating agent than EDTA | 3.4 | Clear solution with distinct orange precipitate | 6.5 | Clear, light blue solution | Clear light blue solution | distinct orange complexes | blue complexes | distinct blue complex of Dimethylglucamine is formed instead of brown complex of Aminomethylpropanol and Cu^2+ ions | – | – | – | – | – | –
O=C(O)CN(CCN(CC(=O)O)CC(=O)O)CC(=O)O [EDTA, ethylenediaminetetraacetic acid] | – | – | – | – | – | – | – | – | – | – | Clear, very slightly yellowish solution | Clear, very slightly yellowish solution | Clear, very slightly yellowish solution | 10.6 | Clear, light blue solution | 10.0
